A value given as a limit tells only on which side of the number the result lay.

The target of the first test is Human Factor D (Homo sapiens (Human), UniProt P00746). The experiment in a line: Human Factor D Assay. Format: biochemical.
Sequence of Human Factor D (P00746 26-253): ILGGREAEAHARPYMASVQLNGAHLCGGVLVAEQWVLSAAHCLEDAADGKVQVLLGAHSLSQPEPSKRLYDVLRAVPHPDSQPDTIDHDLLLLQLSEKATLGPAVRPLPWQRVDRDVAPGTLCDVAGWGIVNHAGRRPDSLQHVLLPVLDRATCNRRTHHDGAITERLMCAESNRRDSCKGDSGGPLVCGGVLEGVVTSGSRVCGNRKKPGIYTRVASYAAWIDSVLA
Conditions: not given
The method in brief: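 Thioester cleavage assay: human Factor D (serum-derived, 80 nM final), substrate Z-L-Lys-SBzl with DTNB, both 100 μM final, after 5 min compound preincubation at room temperature.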
The term IC50 denotes the concentration that gives 50% inhibition. In turn, `CC(=O)c1nn(CC(=O)N2C[C@H](F)C[C@H]2C(=O)NC2CCN(C(=O)c3cn[nH]c3)CC2)c2ccc(-c3cnc(C)nc3)cc12` [Compound 261, (2S,4R)-N-(1-(1H-pyrazole-4-carbonyl)piperidin-4-yl)-1-(2-(3-acetyl-5-(2-methylpyrimidin-5-yl)-1H-indazol-1-yl)acetyl)-4-fluoropyrrolidine-2-carboxamide] yielded an IC50 of 1000 to 10000 nM.

Still in this test, the particulars now being: Human Factor D assay of Example 8; Table 2; read-out: IC50.
Take `CC(=O)c1nn(CC(=O)N2[C@@H]3C[C@@H]3C[C@H]2C(=O)Nc2cccc(OC(F)(F)F)c2F)c2ccc(-c3cnc4ccnn4c3)cc12` [Compound 239, (1R,3S,5R)-2-(2-(3-acetyl-5-(pyrazolo[1,5-a]pyrimidin-6-yl)-1H-indazol-1-yl)acetyl)-N-(2-fluoro-3-(trifluoromethoxy)phenyl)-2-azabicyclo[3.1.0] hexane-3-carboxamide]: the IC50 is below 1000 nM.
Same read-out and setting: the same measure for `CC(=O)c1nn(CC(=O)N2[C@@H]3C[C@@H]3C[C@H]2C(=O)NCc2cccc(Cl)c2F)c2ccc(-c3cnc4ccnn4c3)cc12` [Compound 240, (1R,3S,5R)-2-(2-(3-acetyl-5-(pyrazolo[1,5-a]pyrimidin-6-yl)-1H-indazol-1-yl)acetyl)-N-(3-chloro-2-fluorobenzyl)-2-azabicyclo[3.1.0] hexane-3-carboxamide]: below 1000 nM; for `CC(=O)c1nn(CC(=O)N2C[C@H](F)C[C@H]2C(=O)Nc2cccc(Br)n2)c2ccc(-c3cnc4c(c3)ncn4C)cc12` [Compound 241, (2S,4R)-1-(2-(3-acetyl-5-(3-methyl-3H-imidazo[4,5-b]pyridin-6-yl)-1H-indazol-1-yl)acetyl)-N-(6-bromopyridin-2-yl)-4-fluoropyrrolidine-2-carboxamide]: below 1000 nM.
Regarding `CC(=O)c1nn(CC(=O)N2C[C@H](F)C[C@H]2C(=O)Nc2cccc(Br)n2)c2ccc(-c3ccn4nccc4n3)cc12` [Compound 242, (2S,4R)-1-(2-(3-acetyl-5-(pyrazolo[1,5-a]pyrimidin-5-yl)-1H-indazol-1-yl)acetyl)-N-(6-bromopyridin-2-yl)-4-fluoropyrrolidine-2-carboxamide], the 50% inhibitory concentration (IC50) is below 1000 nM.
As for `CC(=O)c1nn(CC(=O)N2C[C@H](F)C[C@H]2C(=O)Nc2cccc(Br)n2)c2ccc(-c3cnc4cc(C)nn4c3)cc12` [Compound 243, (2S,4R)-1-(2-(3-acetyl-5-(2-methylpyrazolo[1,5-a]pyrimidin-6-yl)-1H-indazol-1-yl)acetyl)-N-(6-bromopyridin-2-yl)-4-fluoropyrrolidine-2-carboxamide], the IC50 is below 1000 nM.
Same read-out and setting: with `CC(=O)c1nn(CC(=O)N2C[C@H](F)C[C@H]2C(=O)Nc2cccc(Br)n2)c2ccc(N3CCn4c(nnc4C(F)(F)F)C3)cc12` [Compound 244, (2S,4R)-1-(2-(3-acetyl-5-(3-(trifluoromethyl)-5,6-dihydro-[1,2,4]triazolo[4,3-a]pyrazin-7(8H)-yl)-1H-indazol-1-yl)acetyl)-N-(6-bromopyridin-2-yl)-4-fluoropyrrolidine-2-carboxamide] the figure was below 1000 nM.
On the same count and under the same terms, with `CC(=O)c1nn(CC(=O)N2C[C@H](F)C[C@H]2C(=O)Nc2cccc(Br)n2)c2ccc(-c3cnc4ncccn34)cc12` [Compound 245, (2S,4R)-1-(2-(3-acetyl-5-(imidazo[1,2-a]pyrimidin-3-yl)-1H-indazol-1-yl)acetyl)-N-(6-bromopyridin-2-yl)-4-fluoropyrrolidine-2-carboxamide] the figure was below 1000 nM; with `CSc1cccc(NC(=O)[C@@H]2C[C@@H](F)CN2C(=O)Cn2nc(C(C)=O)c3cc(-c4cnc(C)nc4)ccc32)n1` [Compound 246, (2S,4R)-1-(2-(3-acetyl-5-(2-methylpyrimidin-5-yl)-1H-indazol-1-yl)acetyl)-4-fluoro-N-(6-(methylthio)pyridin-2-yl)pyrrolidine-2-carboxamide], below 1000 nM.
On the same count and under the same terms, the same measure for `CC(=O)c1nn(CC(=O)N2C[C@H](F)C[C@H]2C(=O)Nc2cccc(F)n2)c2ccc(-c3cnc(C)nc3)cc12` [Compound 247, (2S,4R)-1-(2-(3-acetyl-5-(2-methylpyrimidin-5-yl)-1H-indazol-1-yl)acetyl)-4-fluoro-N-(6-fluoropyridin-2-yl)pyrrolidine-2-carboxamide]: below 1000 nM; for `CC(=O)c1nn(CC(=O)N2C[C@H](F)C[C@H]2C(=O)Nc2cccc(Br)n2)c2ccc(-c3ccc4ncnn4c3)cc12` [Compound 248, (2S,4R)-1-(2-(5-([1,2,4]triazolo[1,5-a]pyridin-6-yl)-3-acetyl-1H-indazol-1-yl)acetyl)-N-(6-bromopyridin-2-yl)-4-fluoropyrrolidine-2-carboxamide]: below 1000 nM.
Turning to `CC(=O)c1nn(CC(=O)N2C[C@@H](O)C[C@H]2C(=O)Nc2cccc(Br)n2)c2ccc(-c3cnc(C)nc3)cc12` [Compound 249, (2S,4S)-1-(2-(3-Acetyl-5-(2-methylpyrimidin-5-yl)-1H-indazol-1-yl)acetyl)-N-(6-bromopyridin-2-yl)-4-hydroxypyrrolidine-2-carboxamide], the half-inhibitory concentration (IC50) is below 1000 nM.
On the same count and under the same terms, the same measure for `CC(=O)c1nn(CC(=O)N2CC(=O)C[C@H]2C(=O)Nc2cccc(Br)n2)c2ccc(-c3cnc(C)nc3)cc12` [Compound 250, (S)-1-(2-(3-Acetyl-5-(2-methylpyrimidin-5-yl)-1H-indazol-1-yl)acetyl)-N-(6-bromopyridin-2-yl)-4-oxopyrrolidine-2-carboxamide]: below 1000 nM; for `NC(=O)c1nn(CC(=O)N2C[C@H](F)C[C@H]2C(=O)Nc2cccc(Br)n2)c2ccc(-c3[nH]nnc3-c3cncnc3)cc12` [Compound 251, 1-(2-((2S,4R)-2-(6-bromopyridin-2-ylcarbamoyl)-4-fluoropyrrolidin-1-yl)-2-oxoethyl)-5-(4-(pyrimidin-5-yl)-1H-1,2,3-triazol-5-yl)-1H-indazole-3-carboxamide]: below 1000 nM; for `COCCN(C)CCN1CC(NC(=O)[C@@H]2C[C@@H](F)CN2C(=O)Cn2nc(C(C)=O)c3cc(-c4cnc(C)nc4)ccc32)CC1=O` (stereo partly drawn) [Compound 254, (2S,4R)-1-(2-(3-acetyl-5-(2-methylpyrimidin-5-yl)-1H-indazol-1-yl)acetyl)-4-fluoro-N-(1-(2-((2-methoxyethyl)(methyl)amino)ethyl)-5-oxopyrrolidin-3-yl)pyrrolidine-2-carboxamide]: above 10000 nM.
Turning to `CC(=O)c1nn(CC(=O)N2CC(F)(F)C[C@H]2C(=O)Nc2cccc(Br)n2)c2ccc(-c3cnc(C)nc3)cc12` [Compound 255, (S)-1-(2-(3-acetyl-5-(2-methylpyrimidin-5-yl)-1H-indazol-1-yl)acetyl)-N-(6-bromopyridin-2-yl)-4,4-difluoropyrrolidine-2-carboxamide], the IC50 is below 1000 nM.
Consider `CC(=O)c1nn(CC(=O)N2C[C@H](F)C[C@H]2C(=O)Nc2cccc(OC(F)(F)F)c2F)c2ccc(-c3cnc4cc(C)nn4c3)cc12` [Compound 256, (2S,4R)-1-(2-(3-acetyl-5-(2-methylpyrazolo[1,5-a]pyrimidin-6-yl)-1H-indazol-1-yl)acetyl)-4-fluoro-N-(2-fluoro-3-(trifluoromethoxy)phenyl)pyrrolidine-2-carboxamide], for which the IC50 is below 1000 nM.
Take `CC(=O)c1nn(CC(=O)N2[C@@H]3C[C@@H]3C[C@H]2C(=O)Nc2cccc(Br)n2)c2ccc(-c3cnc4cc(C)nn4c3)cc12` [Compound 257, (1R,3S,5R)-2-(2-(3-acetyl-5-(2-methylpyrazolo[1,5-a]pyrimidin-6-yl)-1H-indazol-1-yl)acetyl)-N-(6-bromopyridin-2-yl)-2-azabicyclo[3.1.0] hexane-3-carboxamide]: the IC50 is below 1000 nM.
The same measure, in the same setting: with `CC(=O)c1nn(CC(=O)N2C[C@H](F)C[C@H]2C(=O)Nc2nc(Cl)cs2)c2ccc(-c3cnc(C)nc3)cc12` [Compound 258, (2S,4R)-1-(2-(3-acetyl-5-(2-methylpyrimidin-5-yl)-1H-indazol-1-yl)acetyl)-N-(4-chlorothiazol-2-yl)-4-fluoropyrrolidine-2-carboxamide] the figure was below 1000 nM.
Still for that read-out and setting: the same measure for `CC(=O)c1nn(CC(=O)N2C[C@H](F)C[C@H]2C(=O)Nc2cccc(Br)n2)c2ccc(-c3cnc(C4CC4)nc3)cc12` [Compound 259]: below 1000 nM; for `CC(=O)c1nn(CC(=O)N2C[C@H](F)C[C@H]2C(=O)Nc2cccc(Br)n2)c2ccc(-c3cnc(N)nc3)cc12` [Compound 260, (2S,4R)-1-(2-(3-acetyl-5-(2-aminopyrimidin-5-yl)-1H-indazol-1-yl)acetyl)-N-(6-bromopyridin-2-yl)-4-fluoropyrrolidine-2-carboxamide]: below 1000 nM; for `CC(=O)c1nn(CC(=O)N2C[C@H](F)C[C@H]2C(=O)Nc2cccc(Br)n2)c2ccc(-c3cnc4c(C#N)c(C)nn4c3)cc12` [Compound 262, (2S,4R)-1-(2-(3-acetyl-5-(3-cyano-2-methylpyrazolo[1,5-a]pyrimidin-6-yl)-1H-indazol-1-yl)acetyl)-N-(6-bromopyridin-2-yl)-4-fluoropyrrolidine-2-carboxamide]: below 1000 nM.
Consider `CC(=O)c1nn(CC(=O)N2C[C@H](F)C[C@H]2C(=O)Nc2cccc(Br)n2)c2ccc(-c3cnc4c(C#N)cnn4c3)cc12` [Compound 263, (2S,4R)-1-(2-(3-acetyl-5-(3-cyanopyrazolo[1,5-a]pyrimidin-6-yl)-1H-indazol-1-yl)acetyl)-N-(6-bromopyridin-2-yl)-4-fluoropyrrolidine-2-carboxamide], for which the IC50 is below 1000 nM.
On the same count and under the same terms, the same measure for `CC(=O)c1nn(CC(=O)N2C[C@H](F)C[C@H]2C(=O)Nc2cccc(C(F)(F)F)n2)c2ccc(-c3cnc4cc(C)nn4c3)cc12` [Compound 264, (2S,4R)-1-(2-(3-acetyl-5-(2-methylpyrazolo[1,5-a]pyrimidin-6-yl)-1H-indazol-1-yl)acetyl)-4-fluoro-N-(6-(trifluoromethyl)pyridin-2-yl)pyrrolidine-2-carboxamide]: below 1000 nM.
Same read-out and setting: the same measure for `CC(=O)c1nn(CC(=O)N2C[C@H](F)C[C@H]2C(=O)Nc2cccc(C#N)n2)c2ccc(-c3cnc4cc(C)nn4c3)cc12` [Compound 265, (2S,4R)-1-(2-(3-acetyl-5-(2-methylpyrazolo[1,5-a]pyrimidin-6-yl)-1H-indazol-1-yl)acetyl)-N-(6-cyanopyridin-2-yl)-4-fluoropyrrolidine-2-carboxamide]: below 1000 nM.

The record behind these values is US10287301B2 (Achillion Pharmaceuticals, Inc., priority 2015, dated 2019).
